Laboratory results reported in patent US20240270762A1, “PENICILLIN-BINDING PROTEIN INHIBITORS” (priority 2021, published 2024).
In brackets after ≈: the same amount, converted by molar mass.

Assays:
K. pneumoniae 848844 = experiment: microbe, parasite or virus in culture; type: cell-based; conditions: Klebsiella pneumoniae, 848844, read-out: MIC K. pneumoniae 848844
E. coli AG100A = experiment: Broth microdilution MIC in CAMHB; type: cell-based; conditions: Escherichia coli, read-out: MIC E. coli AG100A
E. coli D22 = experiment: microbe, parasite or virus in culture; type: cell-based; conditions: Escherichia coli, D22, read-out: MIC E. coli D22
E. coli AG100 = experiment: microbe, parasite or virus in culture; type: cell-based; conditions: Escherichia coli, AG100, read-out: MIC E. coli AG100
N. gonorrhoeae WHO M = experiment: Liquid broth MIC in Fastidious broth; conditions: Neisseria gonorrhoeae, read-out: Minimum Inhibitory Concentration (MIC), N. gonorrhoeae WHO M
N. gonorrhoeae FA1090 = experiment: Liquid broth MIC in Fastidious broth; conditions: Neisseria gonorrhoeae, FA1090, read-out: Minimum Inhibitory Concentration (MIC), N. gonorrhoeae FA 1090
[1] = system: N. gonorrhoeae ATCC 49226; experiment: Liquid broth MIC in Fastidious broth; conditions: Neisseria gonorrhoeae, ATCC49226, read-out: Minimum Inhibitory Concentration (MIC), N. gonorrhoeae ATCC 49226
N. gonorrhoeae MS11 = experiment: Liquid broth MIC in Fastidious broth; conditions: Neisseria gonorrhoeae, MS11, read-out: Minimum Inhibitory Concentration (MIC), N. gonorrhoeae MS11
Protocol: Additional antibacterial testing of the series was performed in 8 reference strains of N. gonorrhoeae (ATCC 49226, FA1090, MS 11, WHO G, WHO L, WHO M, WHO K, WHO X, WHO Z, WHO Q, CDC-0197). ATCC 49226, FA1090, MS11, WHO G, WHO L, and WHO M produce wild type or wild-type like PBP2. WHO K, WHO X, WHO Z, WHO Q, and CDC-0197 produce mosaic PBP2. Liquid broth-based assays were used for antibacterial testing of PBP inhibitors in Neisseria gonorrhoeae. Briefly, cryo-preserved bacterial cultures of clinical strains were streaked for isolation on Chocolate Agar (72 g/L (2×) GC Agar Base (BD #228950) and 2% (2×) Hemoglobin was autoclaved at 121° C. for 20 minutes to sterilize. Once cooled to ˜50° C. the 2×GC Agar Base and 2× Hemoglobin solutions are combined and 1% IsoVitaleX Enrichment (BD #211876) was added to the solution). Strains were incubated at 36° C. and 5% CO2 to allow growth of colonies, 24 hours before inoculum preparation. 2-fold serial dilutions of test compounds were conducted in a 96 well plate with a final volume of 75 μL per well at 2-fold the final desired concentration in Fastidious broth (Remel #R07664). For preparation of assay inoculum, a direct suspension was prepared by aseptically swabbing 10-15 colonies from agar plates into culture tubes containing 2 mL of fresh sterile saline. After the dilution plates were set up, direct suspensions were then diluted in a cuvette containing sterile saline and the optical density was measured at 600 nm. Inocula were diluted such that 75 μL of this culture in Fastidious broth results in a starting bacterial concentration of 5×10^5 CFU/mL when added to the dilution plates. The plates were incubated for ˜24 hours at 36° C. and 5% CO2.

[2] = target: T1, PBP3 from Pseudomonas aeruginosa (PAO1) (Pseudomonas aeruginosa, UniProt G3XD46); experiment: Bocillin-FL fluorescence polarization competition binding, P. aeruginosa PBP3; conditions: Binding affinity to P. aeruginosa PBP3; fluorescence polarization competition binding assay using Bocillin-FL; read-out: P. aeruginosa PBP3 Potency
T1 construct: made in house
T1 sequence (G3XD46 whole entry): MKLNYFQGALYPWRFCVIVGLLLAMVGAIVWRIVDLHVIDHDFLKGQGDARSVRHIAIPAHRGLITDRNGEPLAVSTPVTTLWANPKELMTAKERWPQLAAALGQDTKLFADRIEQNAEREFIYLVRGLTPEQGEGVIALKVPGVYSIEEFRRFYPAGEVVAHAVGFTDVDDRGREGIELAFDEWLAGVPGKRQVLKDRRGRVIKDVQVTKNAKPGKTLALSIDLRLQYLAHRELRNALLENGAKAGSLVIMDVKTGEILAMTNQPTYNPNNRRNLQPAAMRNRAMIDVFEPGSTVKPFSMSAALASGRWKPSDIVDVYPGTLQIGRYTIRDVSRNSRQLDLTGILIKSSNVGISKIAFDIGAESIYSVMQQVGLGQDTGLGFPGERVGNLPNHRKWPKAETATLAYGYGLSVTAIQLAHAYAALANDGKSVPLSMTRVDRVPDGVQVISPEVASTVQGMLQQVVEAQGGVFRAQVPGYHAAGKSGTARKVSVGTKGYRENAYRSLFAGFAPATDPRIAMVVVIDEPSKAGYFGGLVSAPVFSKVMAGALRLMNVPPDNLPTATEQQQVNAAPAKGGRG
Method in brief: (§1)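 Purified PBP was preincubated with inhibitor (E. coli PBP3 1.5 μM, 30 min; P. aeruginosa PBP3 0.75 μM, A. baumannii PBP3 0.2 μM and PBP1a 1 μM, 15 min), then Bocillin-FL (0.1 μM; 0.05 μM for PBP1a) added and FP read up to 60 min. EC50 = 50% loss of bound probe.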

N. gonorrhoeae WHO Z = experiment: Liquid broth MIC in Fastidious broth; conditions: Neisseria gonorrhoeae, read-out: Minimum Inhibitory Concentration (MIC), N. gonorrhoeae WHO Z
K. pneumoniae UMM = experiment: microbe, parasite or virus in culture; type: cell-based; conditions: Klebsiella pneumoniae, read-out: MIC K. pneumoniae UMM
P. aeruginosa ATCC 27853 = experiment: microbe, parasite or virus in culture; type: cell-based; conditions: Pseudomonas aeruginosa, ATCC27853, read-out: MIC P. aeruginosa ATCC 27853
[3] = target: T2, PBP3 from Escherichia coli (K-12) (Escherichia coli, UniProt P0AD68); experiment: Bocillin-FL fluorescence polarization competition binding, E. coli PBP3
T2 construct: made in house
T2 sequence (P0AD68 1-577): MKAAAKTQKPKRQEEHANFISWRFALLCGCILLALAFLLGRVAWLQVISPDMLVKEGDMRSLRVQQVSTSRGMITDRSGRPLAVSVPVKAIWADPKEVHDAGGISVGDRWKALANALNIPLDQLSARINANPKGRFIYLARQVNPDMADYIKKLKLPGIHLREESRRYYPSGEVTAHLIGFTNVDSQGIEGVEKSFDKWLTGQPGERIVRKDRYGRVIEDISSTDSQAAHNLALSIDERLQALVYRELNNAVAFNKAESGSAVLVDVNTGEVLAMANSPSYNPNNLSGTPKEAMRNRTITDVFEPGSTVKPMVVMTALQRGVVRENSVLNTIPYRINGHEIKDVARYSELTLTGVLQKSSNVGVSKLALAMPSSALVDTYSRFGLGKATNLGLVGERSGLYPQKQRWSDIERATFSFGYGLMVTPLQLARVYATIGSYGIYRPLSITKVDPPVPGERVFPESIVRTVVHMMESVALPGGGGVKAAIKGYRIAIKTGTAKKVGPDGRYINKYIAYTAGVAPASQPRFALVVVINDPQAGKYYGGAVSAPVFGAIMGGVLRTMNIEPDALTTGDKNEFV
Method in brief: as §1

| SMILES | MIC (K. pneumoniae 848844) | MIC (E. coli AG100A) | MIC (E. coli D22) | MIC (E. coli AG100) | MIC (N. gonorrhoeae WHO M) | MIC (N. gonorrhoeae FA1090) | MIC [1] | MIC (N. gonorrhoeae MS11) | IC50 [2] | MIC (N. gonorrhoeae WHO Z) | MIC (K. pneumoniae UMM) | MIC (P. aeruginosa ATCC 27853) | EC50 [3] |
| --- | --- | --- | --- | --- | --- | --- | --- | --- | --- | --- | --- | --- | --- |
| CS(=O)(=O)N1CCN(C(=O)NC(C(=O)N[C@H]2Cc3cccc(C(=O)O)c3OB2O)c2ccc(P(=O)(O)O)c(F)c2)C1=O (stereo partly drawn) [Example 12, (3R)-3-(2-(3-fluoro-4-phosphonophenyl)-2-(3-(methylsulfonyl)-2-oxoimidazolidine-1-carboxamido)acetamido)-2-hydroxy-3,4-dihydro-2H-benzo[e][1,2]oxaborinine-8-carboxylic acid] | > 128 µg/mL | 8 to 16 µg/mL (≈ 12.7 to 25.5 µM) | 2 to 4 µg/mL (≈ 3.18 to 6.37 µM) | 8 to 16 µg/mL (≈ 12.7 to 25.5 µM) | < 1 µg/mL | < 1 µg/mL | < 1 µg/mL | < 1 µg/mL | < 10 µM | < 1 µg/mL | > 128 µg/mL | > 128 µg/mL | < 10 µM |
| O=C(O)c1cccc2c1OB(O)[C@@H](NC(=O)C(NC(=O)N1CCCNC1=O)c1ccc(P(=O)(O)O)cc1)C2 (stereo partly drawn) [Example 56, (3R)-2-hydroxy-3-(2-(2-oxohexahydropyrimidine-1-carboxamido)-2-(4-phosphonophenyl)acetamido)-3,4-dihydro-2H-benzo[e][1,2]oxaborinine-8-carboxylic acid] | > 128 µg/mL | 32 to 64 µg/mL (≈ 58.6 to 117 µM) | 8 to 16 µg/mL (≈ 14.6 to 29.3 µM) | > 128 µg/mL | < 1 µg/mL | < 1 µg/mL | 1 to 2 µg/mL (≈ 1.83 to 3.66 µM) | 1 to 2 µg/mL (≈ 1.83 to 3.66 µM) | < 10 µM | 4 to 8 µg/mL (≈ 7.32 to 14.6 µM) | > 128 µg/mL | > 128 µg/mL | 10 to 50 µM |
| CC(C)S(=O)(=O)NC(C(=O)N[C@H]1Cc2cccc(C(=O)O)c2OB1O)c1ccc(P(=O)(O)O)cc1 (stereo partly drawn) [Example 60, (3R)-2-hydroxy-3-(2-((1-methylethyl)sulfonamido)-2-(4-phosphonophenyl)acetamido)-3,4-dihydro-2H-benzo[e][1,2]oxaborinine-8-carboxylic acid] | > 128 µg/mL | > 128 µg/mL | > 128 µg/mL | > 128 µg/mL | 4 to 8 µg/mL (≈ 7.6 to 15.2 µM) | 4 to 8 µg/mL (≈ 7.6 to 15.2 µM) | 16 to 32 µg/mL (≈ 30.4 to 60.8 µM) | 16 to 32 µg/mL (≈ 30.4 to 60.8 µM) | 50 to 250 µM | 16 to 32 µg/mL (≈ 30.4 to 60.8 µM) | > 128 µg/mL | > 128 µg/mL | > 250 µM |
| O=C(O)c1cccc2c1OB(O)[C@@H](NC(=O)[C@@H](NC(=O)N1CCCCC1=O)c1ccc(P(=O)(O)O)cc1)C2 [Example 36, (R)-2-hydroxy-3-((S)-2-(2-oxopiperidine-1-carboxamido)-2-(4-phosphonophenyl)acetamido)-3,4-dihydro-2H-benzo[39e][1,2]oxaborinine-8-carboxylic acid] | > 128 µg/mL | > 128 µg/mL | 32 to 64 µg/mL (≈ 58.7 to 117 µM) | > 128 µg/mL | 1 to 2 µg/mL (≈ 1.83 to 3.67 µM) | 1 to 2 µg/mL (≈ 1.83 to 3.67 µM) | 16 to 32 µg/mL (≈ 29.3 to 58.7 µM) | 16 to 32 µg/mL (≈ 29.3 to 58.7 µM) | 50 to 250 µM | 16 to 32 µg/mL (≈ 29.3 to 58.7 µM) | > 128 µg/mL | > 128 µg/mL | 50 to 250 µM |
| O=C(O)c1cccc2c1OB(O)[C@@H](NC(=O)C(NC(=O)c1cnc[nH]c1=O)c1ccc(P(=O)(O)O)cc1)C2 (stereo partly drawn) [Example 176, (3R)-2-hydroxy-3-(2-(6-oxo-1,6-dihydropyrimidine-5-carboxamido)-2-(4-phosphonophenyl)acetamido)-3,4-dihydro-2H-benzo[e][1,2]oxaborinine-8-carboxylic acid] | > 128 µg/mL | > 128 µg/mL | > 128 µg/mL | > 128 µg/mL | 1 to 2 µg/mL (≈ 1.84 to 3.69 µM) | 1 to 2 µg/mL (≈ 1.84 to 3.69 µM) | 4 to 8 µg/mL (≈ 7.38 to 14.8 µM) | 4 to 8 µg/mL (≈ 7.38 to 14.8 µM) | < 10 µM | 16 to 32 µg/mL (≈ 29.5 to 59 µM) | > 128 µg/mL | 32 to 64 µg/mL (≈ 59 to 118 µM) | 50 to 250 µM |
| Nc1ncc(C(=O)N[C@@H](C(=O)N[C@H]2Cc3cccc(C(=O)O)c3OB2O)c2ccc(P(=O)(O)O)cc2)s1 (racemic) [Example 50, (R)-3-((S)-2-(2-aminothiazole-5-carboxamido)-2-(4-phosphonophenyl)acetamido)-2-hydroxy-3,4-dihydro-2H-benzo[e][1,2]oxaborinine-8-carboxylic acid and (R)-3-((R)-2-(2-aminothiazole-5-carboxamido)-2-(4-phosphonophenyl)acetamido)-2-hydroxy-3,4-dihydro-2H-benzo[e][1,2]oxaborinine-8-carboxylic acid] | > 128 µg/mL | > 128 µg/mL | 32 to 64 µg/mL (≈ 58.6 to 117 µM) | > 128 µg/mL | 1 to 2 µg/mL (≈ 1.83 to 3.66 µM) | 1 to 2 µg/mL (≈ 1.83 to 3.66 µM) | 4 to 8 µg/mL (≈ 7.32 to 14.6 µM) | 4 to 8 µg/mL (≈ 7.32 to 14.6 µM) | < 10 µM | 16 to 32 µg/mL (≈ 29.3 to 58.6 µM) | > 128 µg/mL | > 128 µg/mL | 50 to 250 µM |
| O=C(NC(C(=O)N[C@H]1Cc2cccc(C(=O)O)c2OB1O)c1ccc(P(=O)(O)O)cc1)c1ccc(Cl)cn1 (stereo partly drawn) [Example 184, (3R)-3-(2-(5-chloropicolinamido)-2-(4-phosphonophenyl)acetamido)-2-hydroxy-3,4-dihydro-2H-benzo[e][1,2]oxaborinine-8-carboxylic acid] | > 128 µg/mL | 32 to 64 µg/mL (≈ 57.2 to 114 µM) | 8 to 16 µg/mL (≈ 14.3 to 28.6 µM) | > 128 µg/mL | < 1 µg/mL | < 1 µg/mL | < 1 µg/mL | < 1 µg/mL | < 10 µM | < 1 µg/mL | > 128 µg/mL | > 128 µg/mL | < 10 µM |
| CN1CCN(C(=O)NC(C(=O)N[C@H]2Cc3cccc(C(=O)O)c3OB2O)c2ccc(P(=O)(O)O)cc2)C1=O (stereo partly drawn) [Example 41, (3R)-2-hydroxy-3-(2-(3-methyl-2-oxoimidazolidine-1-carboxamido)-2-(4-phosphonophenyl)acetamido)-3,4-dihydro-2H-benzo[e][1,2]oxaborinine-8-carboxylic acid] | > 128 µg/mL | 8 to 16 µg/mL (≈ 14.6 to 29.3 µM) | 2 to 4 µg/mL (≈ 3.66 to 7.32 µM) | 32 to 64 µg/mL (≈ 58.6 to 117 µM) | < 1 µg/mL | < 1 µg/mL | < 1 µg/mL | < 1 µg/mL | < 10 µM | < 1 µg/mL | 32 to 64 µg/mL (≈ 58.6 to 117 µM) | > 128 µg/mL | < 10 µM |
| CS(=O)(=O)N1CCC[C@H]1C(=O)N[C@@H](C(=O)N[C@H]1Cc2cccc(C(=O)O)c2OB1O)c1ccc(P(=O)(O)O)cc1 [Example 44, (R)-2-hydroxy-3-((R)-2-((S)-1-(methylsulfonyl)pyrrolidine-2-carboxamido)-2-(4-phosphonophenyl)acetamido)-3,4-dihydro-2H-benzo[e][1,2]oxaborinine-8-carboxylic acid] | > 128 µg/mL | 32 to 64 µg/mL (≈ 53.8 to 108 µM) | 8 to 16 µg/mL (≈ 13.4 to 26.9 µM) | > 128 µg/mL | < 1 µg/mL | < 1 µg/mL | 1 to 2 µg/mL (≈ 1.68 to 3.36 µM) | 1 to 2 µg/mL (≈ 1.68 to 3.36 µM) | < 10 µM | 1 to 2 µg/mL (≈ 1.68 to 3.36 µM) | > 128 µg/mL | > 128 µg/mL | 10 to 50 µM |
